Assays:
C57BL/6 male mice [1] = experiment: Dose-response of protection against total body X-ray irradiation: body weight, small intestine villus length (Example 5); format: in vivo
Protocol: C57BL/6 male mice (24.8±1.6 g in body weight) aged 10 weeks were divided into 6 groups: a vehicle control group, a JAC4 (200 mg/kg) treatment group, a vehicle control+radiation group, and JAC4 intervention (50 mg/kg, 100 mg/kg, and 200 mg/kg)+radiation groups, with 12 mice in each group. JAC4 or an equal volume of vehicle (polyethylene glycol:ethanol:physiological saline=47.5:7.5:50, v/v/v) was orally administered to the mice once daily for 7 consecutive days. After that, the mice in the radiation groups were subjected to total body X-ray irradiation (6 Gy). The JAC4 or vehicle treatment was continued for 3 days.
The body weights of the mice before and after the total body X-ray irradiation were measured, and the body weight curves are shown in FIG. 8.
HE staining was performed on the small intestine tissues of mice subjected to total body X-ray irradiation. The length of the small intestine villi in all groups was measured and the results were statistically analyzed. The specific procedures are as follows: 3 mice were randomly selected from each group for statistical analysis of their small intestine tissue HE staining images, and for each mouse, 6 fields of view were randomly selected for inspection (** p<0.01, *** p<0.001).

BEAS-2B cells [2] = experiment: ROS, SOD, CAT and MDA assays, BEAS-2B (Example 22); format: cell-based, human
Description: The large amount of reactive oxygen species (ROS) induced by X-ray and the sustained oxidative stress reaction may cause DNA damage. Superoxide dismutase (SOD) and catalase (CAT) exert antioxidant effects, and the lipid oxidation product malondialdehyde (MDA) and ROS can reflect the oxidative stress level in vivo. The intracellular ROS level was detected using the fluorescent probe DCFH-DA. […] The supernatant of BEAS-2B cells was extracted and subjected to an MDA assay and an activity assay for CAT and SOD.

C57BL/6 male mice [3] = experiment: Blood biochemistry after total body irradiation (Example 3); format: in vivo
Protocol: C57BL/6 male mice (24.8±1,6 g in body weight) aged 10 weeks were divided into 4 groups of 8 mice each. After acclimating to the environment, JAC4 (100 mg/kg) or an equal volume of vehicle (polyethylene glycol:ethanol:physiological saline=47.5:7.5:50, v/v/v) was orally administered to the mice once daily for 7 consecutive days. After that, the mice in one JAC4 treatment group and one vehicle group were subjected to total body X-ray irradiation (6 Gy) and JAC4 or vehicle treatment was continued. After 3 days, the administration of JAC4 or vehicle was discontinued, and blood samples, small intestine tissues, and thymus and spleen tissues were collected 4 days later.
The biochemical results of the mice were tested, with procedures as follows: Peripheral blood was collected from the orbit into an ethylenediaminetetraacetic acid K3 tube, followed by immediate blood biochemistry analysis on a blood analyzer.

C57BL/6 male mice [4] = experiment: Small intestine epithelial injury after abdominal X-ray irradiation at 3 or 6 Gy (Example 8); format: in vivo; conditions: for small intestine villus length: 4 days after
Protocol: CS7BL/6 male mice (24.8±1.6 g in body weight) aged 10 weeks were divided into 5 groups of 6 mice each. JAC4 (100 mg/kg) or an equal volume of vehicle (polyethylene glycol:ethanol:physiological saline=47.5:7.5:50, v/v/v) was orally administered to the mice once daily for 7 consecutive days. After that, the mice were subjected to abdominal X-ray irradiation at different doses (3 or 6 Gy) and JAC4 or vehicle treatment was continued. After 4 days, the small intestine tissues were collected for HE staining and inspection, the small intestine villus length and the ileum crypt height in all groups were measured and statistically analyzed, and the small intestine was histopathologically scored. The specific procedures are as follows: 3 mice were randomly selected from each group for statistical analysis of their small intestine tissue HE staining images, and for each mouse, 6 fields of view were randomly selected for inspection (*** p<0.001).

BEAS-2B cells [5] = experiment: γ-H2AX foci and Western blot (DSBs), BEAS-2B (Example 22); format: cell-based, human
Protocol: To investigate the effect of JAC4 in combination with X-ray on DSBs in SPCA-1 and BEAS-2B cells, SPCA-1 and BEAS-2B cells were pretreated with 10 μM JAC4 for 24 h and 4 Gy X-ray for 2 h, and then subjected to γ-H2AX fluorescent labeling and Western immunoblot (see Example 4 for detailed procedures).

[6] = non-radiation, JAC4 100 mg/kg oral
[7] = JAC4 100 mg/kg oral + abdominal X-ray 3 Gy
[8] = JAC4 100 mg/kg oral + abdominal X-ray 6 Gy

Compound: c1ccc(CSc2nnc(C3COc4ccccc4O3)o2)nc1 (stereo not drawn) [JAC4]
- body weight loss after radiation (C57BL/6 male mice [1]; JAC4 50, 100, 200 mg/kg oral + TBI 6 Gy vs vehicle+radiation): slower body weight loss
- small intestine villus length (C57BL/6 male mice [1]; day 3 after TBI 6 Gy, JAC4 50 mg/kg oral): 249.42±27.19 μm
- small intestine villus length (C57BL/6 male mice [1]; day 3 after TBI 6 Gy, JAC4 100 mg/kg oral): 244.78±40.74 μm
- small intestine villus length (C57BL/6 male mice [1]; day 3 after TBI 6 Gy, JAC4 200 mg/kg oral): 212.43±27.99 μm
- small intestine villus length (C57BL/6 male mice [1]; day 7 after TBI 6 Gy, JAC4 50 mg/kg oral): 235.57±24.34 μm
- small intestine villus length (C57BL/6 male mice [1]; day 7 after TBI 6 Gy, JAC4 100 mg/kg oral): 254.95±28.91 μm
- small intestine villus length (C57BL/6 male mice [1]; day 7 after TBI 6 Gy, JAC4 200 mg/kg oral): 259.17±17.56 μm
- small intestine villus length (C57BL/6 male mice [1]; non-radiation, JAC4 200 mg/kg oral): 306.78±14.64 μm
- CAT activity (BEAS-2B cells [2]; JAC4+X-ray group): 3.56±0.02 U/mg
- SOD activity (BEAS-2B cells [2]; JAC4+X-ray group): 24.20±1.18 U/mg
- oxidation product MDA level (BEAS-2B cells [2]; JAC4+X-ray group): 31.35 ± 4.34 µM/mg
- CAT activity (BEAS-2B cells [2]; JAC4 group): 3.42±0.08 U/mg
- SOD activity (BEAS-2B cells [2]; JAC4 group): 28.67±1.36 U/mg
- oxidation product MDA level (BEAS-2B cells [2]; JAC4 group): 24.95 ± 1.63 µM/mg
- ROS level (BEAS-2B cells [2]; JAC4 in combination with X-ray): significantly reduced
- ALT (C57BL/6 male mice [3]; JAC4 100 mg/kg oral + TBI 6 Gy): 31.33±3.14 U/L
- AST (C57BL/6 male mice [3]; JAC4 100 mg/kg oral + TBI 6 Gy): 110.17±20.86 U/L
- CK-MB (C57BL/6 male mice [3]; JAC4 100 mg/kg oral + TBI 6 Gy): 437.67±90.38 U/L
- LDH (C57BL/6 male mice [3]; JAC4 100 mg/kg oral + TBI 6 Gy): 888.67±81.48 U/L
- SOD (C57BL/6 male mice [3]; JAC4 100 mg/kg oral + TBI 6 Gy): 133.00±6.96 U/mL
- ALT (C57BL/6 male mice [3]; [6]): 47.17±14.81 U/L
- AST (C57BL/6 male mice [3]; [6]): 140.83±38.72 U/L
- CK-MB (C57BL/6 male mice [3]; [6]): 565.50±261.37 U/L
- LDH (C57BL/6 male mice [3]; [6]): 444.00±94.58 U/L
- ileum crypt height (C57BL/6 male mice [4]; [7]): 62.06±3.26 μm
- small intestine histopathological score (C57BL/6 male mice [4]; [7]): 1.50±0.55
- small intestine villus length (C57BL/6 male mice [4]; [7]): 278.19±25.21 μm
- ileum crypt height (C57BL/6 male mice [4]; [8]): 57.32±4.43 μm
- small intestine histopathological score (C57BL/6 male mice [4]; [8]): 4.17±0.98
- small intestine villus length (C57BL/6 male mice [4]; [8]): 278.25±23.79 μm
- formation of γ-H2AX foci (BEAS-2B cells [5]; 10 μM JAC4 24 h + 4 Gy X-ray 2 h vs X-ray treatment group): significantly reduced
- JWA expression level (Western blot) (BEAS-2B cells [5]; 10 μM JAC4 + 4 Gy X-ray): increased
- γ-H2AX protein expression level (Western blot) (BEAS-2B cells [5]; 10 μM JAC4 + 4 Gy X-ray): decreased

Reference: US20250345318A1, “COMPOUND AND USE THEREOF IN PREVENTING OR TREATING RADIATION DAMAGE” (SIMCERE PHARMACEUTICAL CO., LTD., priority 2022, published 2025)
